In patent US20200017467A1, “NOVEL TRIAZOLE DERIVATIVES” (BAYER CROPSCIENCE AKTIENGESELLSCHAFT, priority 2017, published 2020):

What was measured:
Puccinia recondita = test: In vivo preventive test on Puccinia recondita (brown rust on wheat); settings: 264 h, 500 ppm of active ingredient, preventive spray, evaluated 11 days after inoculation, read-out: efficacy
Method: Example A: In Vivo Preventive Test on Puccinia recondita (Brown Rust on Wheat) [table] The active ingredients were made soluble and homogenized in a mixture of dimethyl sulfoxide/acetone//Tween® 80 and then diluted in water to the desired concentration. Young plants of wheat were treated by spraying the active ingredient prepared as described above. Control plants were treated only with an aqueous solution of acetone/dimethyl sulfoxide/Tween® 80. After 24 hours, the plants were contaminated by spraying the leaves with an aqueous suspension of Puccinia recondita spores. The contaminated wheat plants were incubated for 24 hours at 20° C. and at 100% relative humidity and then for 10 days at 20° C. and at 70-80% relative humidity. The test was evaluated 11 days after the inoculation. 0% means an efficacy which corresponds to that of the control plants while an efficacy of 100% means that no disease was observed.

[1] = tested on: Blumeria graminis fsp. hordei; test: In vivo preventive Blumeria test (barley); settings: 168 h, 500 ppm of active ingredient, preventive spray, evaluated 7 days after inoculation, read-out: efficacy
Method: Example E: In Vivo Preventive Blumeria Test (Barlev) [table] To produce a suitable preparation of active compound, 1 part by weight of active compound or active compound combination was mixed with the stated amounts of solvent and emulsifier, and the concentrate was diluted with water to the desired concentration. To test for preventive activity, young plants were sprayed with the preparation of active compound or active compound combination at the stated rate of application. After the spray coating had been dried, the plants were dusted with spores of Blumeria graminis fsp. hordei. The plants were placed in the greenhouse at a temperature of approximately 18° C. and a relative atmospheric humidity of approximately 80% to promote the development of mildew pustules. The test was evaluated 7 days after the inoculation. 0% means an efficacy which corresponds to that of the untreated control, while an efficacy of 100% means that no disease is observed.

Septoria tritici [2] = test: Example F-A: in vivo preventive Septoria tritici test (wheat); settings: Zymoseptoria tritici, 504 h, evaluated 21 days after inoculation, read-out: Efficacy in % Example F-A
Method: Example F: In Vivo Septoria tritici Test (Wheat); Comparison of Pyridinyloxy-Pyridyl Compounds According to the Invention Vs. Compounds Known from WO-A 2010/146116 [table] To produce a suitable preparation of active compound, 1 part by weight of active compound or active compound combination is mixed with the stated amounts of solvent and emulsifier, and the concentrate is diluted with water to the desired concentration. Example F-A: In Vivo Preventive Septoria tritici Test (Wheat) To test for preventive activity, young plants are sprayed with the preparation of active compound or active compound combination at the stated rate of application. After the spray coating has been dried, the plants are sprayed with a spore suspension of Septoria tritici. The plants remain for 48 hours in an incubation cabinet at approximately 20° C. and a relative atmospheric humidity of approximately 100% and afterwards for 60 hours at approximately 15° C. in a translucent incubation cabinet at a relative atmospheric humidity of approximately 100%. The plants are placed in the greenhouse at a temperature of approximately 15° C. and a relative atmospheric humidity of approximately 80%. The test is evaluated 21 days after the inoculation. 0% means an efficacy which corresponds to that of the untreated control, while an efficacy of 100% means that no disease is observed.

Septoria tritici [3] = test: Example F-B: in vivo curative Septoria tritici test (wheat); settings: Zymoseptoria tritici, 504 h, sprayed 48 hours after inoculation, evaluated 21 days after inoculation, read-out: Efficacy in % Example F-B
Method: Example F: In Vivo Septoria tritici Test (Wheat); Comparison of Pyridinyloxy-Pyridyl Compounds According to the Invention Vs. Compounds Known from WO-A 2010/146116 [table] To produce a suitable preparation of active compound, 1 part by weight of active compound or active compound combination is mixed with the stated amounts of solvent and emulsifier, and the concentrate is diluted with water to the desired concentration. Example F-B: In Vivo Curative Septoria tritici Test (Wheat) To test for curative activity, young plants are inoculated with a spore suspension of Septoria tritici and remain for 48 hours in an incubation cabinet at a temperature of approximately 20° C. and a relative atmospheric humidity of approximately 100%. 48 hours after the incubation, the plants are sprayed with the preparation of active compound or active compound combination at the stated rate of application. After application the plants remain for 60 hours at a temperature of approximately 15° C. in a translucent incubation cabinet at a relative atmospheric humidity of approximately 100%. Afterwards, the plants are placed in the greenhouse at a temperature of approximately 15° C. and a relative atmospheric humidity of approximately 80%. The test is evaluated 21 days after the inoculation. 0% means an efficacy which corresponds to that of the untreated control, while an efficacy of 100% means that no disease is observed.

SMILES | pest or weed control at 500 ppm (Puccinia recondita) | pest or weed control at 500 ppm [1] | pest or weed control at 500 ppm (Septoria tritici [2]) | pest or weed control at 500 ppm (Septoria tritici [3])
CC(O)(Cn1cncn1)c1ccc(Oc2ccc(Br)nc2)nc1C(F)(F)F (centres unmarked) [I-01, 2-[6-[(6-bromo-3-pyridyl)oxy]-2-(trifluoromethyl)-3-pyridyl]-1-(1,2,4-triazol-1-yl)propan-2-ol] | 90 to 100% | 90 to 100% | 100% | 93%
CC(O)(Cn1cncn1)c1ccc(Oc2ccc(C(F)(F)F)nc2)nc1C(F)(F)F (centres unmarked) [I-02, 1-(1,2,4-triazol-1-yl)-2-[2-(trifluoromethyl)-6-[[6-(trifluoromethyl)-3-pyridyl]oxy]-3-pyridyl]propan-2-ol] | 80 to 89% | 90 to 100% | 100% | 100%
CC(O)(Cn1cncn1)c1cnc(Oc2ccc(C(F)(F)F)nc2)cc1C(F)(F)F (centres unmarked) [I-04] | 90 to 100% | 90 to 100% | 100% | 100%
CC(O)(Cn1cncn1)c1ccc(Oc2ccc(Cl)nc2)nc1C(F)(F)F (centres unmarked) [I-05] | 80 to 89% | 90 to 100% | 100% | 100%
CC(O)(Cn1cncn1)c1cnc(Oc2ccc(Cl)nc2)cc1C(F)(F)F (centres unmarked) [I-06, 2-[6-[(6-chloro-3-pyridyl)oxy]-4-(trifluoromethyl)-3-pyridyl]-1-(1,2,4-triazol-1-yl)propan-2-ol] | 90 to 100% | 90 to 100% | 100% | 100%
CC(O)(Cn1cncn1)c1cnc(Oc2ccc(Br)nc2)cc1C(F)(F)F (centres unmarked) [I-07] | 80 to 89% | 90 to 100% | 100% | 70%
OC(Cn1cncn1)c1ccc(Oc2ccc(C(F)(F)F)nc2)nc1C(F)(F)F (centres unmarked) [I-09] | 90 to 100% | 90 to 100% | 100% | 86%
OC(Cn1cncn1)c1cnc(Oc2ccc(Br)nc2)cc1C(F)(F)F (centres unmarked) [I-13] | 90 to 100% | 90 to 100% | 100% | 60%
